Laboratory results as given in patent US5352667A, “Non-peptidic surrogates of the Arg-Gly-Asp sequence and pharmaceutical compositions comprising them” (priority 1991, dated 1994).
Entries after “also recorded” stand apart in the source; their conditions may differ.

What was measured:
trypsin = assay: Treatment with trypsin (HPLC monitoring of hydrolysis); type: in vitro ADME; details: 0.25% trypsin, 37° C., HPLC at 220 nm, aliquots 5, 30, 60 min
Protocol: Compound SF-6,5 and the GRGDS peptide (50 μg in 100 μl PBS) were incubated at 37° C. and exposed to 0.25% trypsin (Gibco; 50μl in modified Puck's buffer). Aliquots were taken after 5, 30 and 60 min and monitored by HPLC at 220 nm.

[1] = tested on: CD4^+ T cell adhesion to FN; assay: Inhibition of activated CD4+ T cell adhesion to FN; type: cell-based, human
Protocol: To examine the adhesive properties of the T cells, 1 μg/50 μl/well of either fibronectin (FN) (Sigma), the 120 kD cell attachment fragment of FN (Telios Pharm. Inc. San Diego, CA), or laminin (LN) (Sigma), were added to 96-flat bottom microtiter-wells for 12 h. Unbound proteins were then washed away and remaining binding sites were blocked with 0.1% bovine serum albumin (BSA) added to the wells for 2 h and washed. CD4+T cells were purified from peripheral blood mononuclear leukocytes obtained from healthy human donors. The mononuclear cells were isolated using a Ficoll gradient, washed and incubated in RPMI supplemented with 10% fetal calf serum (FCS) and antibiotics in petri dishes at 37° C. humidified CO2 incubator. After 2 h, the non-adherent cells were isolated and applied on nylon-wool columns (1.5 h). CD4^+ T cells were then negatively selected by exposure of the cells to a cocktail of anti-CD8, CD19, and CD14 monoclonal antibodies (mAb) conjugated to magnetic-beads (Advanced Magnetics, MA). Unbound cells were recovered and their phenotype was examined. Purity of the CD4^+ T cells was always greater than 92% as determined by FACScan.
The purified CD4^+ T cells were radioactively labeled with ^51 [Cr](New England Nuclear) in RPMI +20% FCS for 2 h and washed. The cells were counted and seeded (0.2×10^5 cells) on the precoated microtiter wells in the presence or the absence of the various inhibitors. Coating was made either with FN, the 120 kD cell-attachment fragment of FN or with control adhesive protein laminin (LN). The inhibitors were various surrogates according to the invention, other test molecules or mAb. After 30 min incubation (in […] CO2 -- humidified incubator) the T cells were activated by 10 ng/ml phorbol myristate acetate (PMA) and the percent of T cells attached to the protein substrates was measured. Unbound cells were washed away after 20-30 min, the bound cells were lysed and their radioactivity was measured using radioactive counter. The amount of the radioactivity of the cell lysates represent the matrix-adherent cells and percent binding was calculated in comparison to the total radioactivity added to the wells. Activated T cell adhesion to control wells or to wells coated with BSA was always 2-5%; the level of adhesion of the non-activated T cells was always below 5%. Where indicated, 1/200 diluted mAb anti-CD29 (anti-β1 mAb Serotec, GB), or 1/400 diluted anti-VLA5 (the β1α5 FN-integrin receptor) mAb (Telios Pharm. Inc. San Diego), or 0.2 mM of RGD, GRGDSPK or GRGESP peptides (Sigma) were used. […] The results shown in Tables 1A, 1B and 1C represent data obtained from several experiments that produced essentially similar results.
In a second series of experiments, FN was used in the adhesion assay carried out with the RGD surrogates NS-8, NS-11 and NS-15 in comparison to RGDS peptide.
In a third series of experiments, FN was used in the adhesion assay with the surrogates SF-6,5 and NS-11 and compared to the peptide GRGDSP.

[2] = tested on: B16-melanoma cells adhesion to FN; assay: Inhibition of B16-melanoma cell adhesion to FN; type: cell-based, murine

## N=C(N)NCCCCCC(=O)NCCCCC(=O)O [SF-6,5, 6-aza-7-oxo-12-quanidino-dodecanoic acid]
trypsin
  Stability to trypsin: intact after 60 min; also recorded: completely resistant to trypsin-induced hydrolysis
[1]; Conc. 25 μg. ml
  % Adhesion of activated CD4^+ T cell to FN: (% inhibition): 10%
[1]; Conc. 50 μg. ml
  % Adhesion of activated CD4^+ T cell to FN: (% inhibition): 25%
[1]; Conc. 100 μg. ml
  % Adhesion of activated CD4^+ T cell to FN: (% inhibition): 38%
[1]; Conc. 200 μg. ml
  % Adhesion of activated CD4^+ T cell to FN: (% inhibition): 55%
[2]; Conc. 25 μg. ml
  % Adhesion of activated tumor cells to FN: (% inhibition): 10%
[2]; Conc. 50 μg. ml
  % Adhesion of activated tumor cells to FN: (% inhibition): 20%
[2]; Conc. 100 μg. ml
  % Adhesion of activated tumor cells to FN: (% inhibition): 30%
[2]; Conc. 200 μg. ml
  % Adhesion of activated tumor cells to FN: (% inhibition): 45%
